Literature values, collected in patent publication US8008021B2, “N-terminal truncation of cardiac troponin subunits and their roles in cardiovascular disease” (Evanston Northwestern Healthcare, priority 2006, dated 2011).

Target: T1, μ-calpain (Homo sapiens, UniProt P07384)
T1 sequence (P07384 1-714): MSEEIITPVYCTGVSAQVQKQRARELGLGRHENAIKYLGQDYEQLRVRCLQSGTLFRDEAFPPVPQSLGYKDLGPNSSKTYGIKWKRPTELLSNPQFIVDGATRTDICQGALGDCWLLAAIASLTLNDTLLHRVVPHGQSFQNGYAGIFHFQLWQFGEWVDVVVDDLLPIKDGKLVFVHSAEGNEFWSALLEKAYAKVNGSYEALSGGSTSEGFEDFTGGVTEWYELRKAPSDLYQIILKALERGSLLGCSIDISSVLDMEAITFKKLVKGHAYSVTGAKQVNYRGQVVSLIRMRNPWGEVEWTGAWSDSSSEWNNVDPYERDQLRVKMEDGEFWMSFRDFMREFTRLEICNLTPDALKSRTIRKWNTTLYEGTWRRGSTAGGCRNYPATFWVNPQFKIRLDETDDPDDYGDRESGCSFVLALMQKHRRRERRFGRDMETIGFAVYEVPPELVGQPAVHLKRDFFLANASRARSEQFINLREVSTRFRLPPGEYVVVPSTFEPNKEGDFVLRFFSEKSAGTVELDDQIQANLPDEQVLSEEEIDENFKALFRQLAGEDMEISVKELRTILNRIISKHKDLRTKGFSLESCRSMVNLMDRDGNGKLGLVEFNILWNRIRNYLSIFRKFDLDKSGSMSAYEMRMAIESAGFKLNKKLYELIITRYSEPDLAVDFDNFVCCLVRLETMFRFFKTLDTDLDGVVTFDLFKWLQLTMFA
T1 sequence (P04632 1-268 partner): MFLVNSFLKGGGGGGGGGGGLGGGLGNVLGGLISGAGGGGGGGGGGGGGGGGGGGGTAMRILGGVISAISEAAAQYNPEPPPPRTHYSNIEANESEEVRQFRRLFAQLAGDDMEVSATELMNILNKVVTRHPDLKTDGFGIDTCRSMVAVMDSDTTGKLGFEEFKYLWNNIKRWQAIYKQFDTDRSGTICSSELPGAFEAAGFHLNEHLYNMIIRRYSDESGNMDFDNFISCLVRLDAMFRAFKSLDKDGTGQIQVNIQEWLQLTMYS
Details: reference 43, cited from earlier work; for Ki: read-out: apparent inhibition constant Ki against μ-calpain

Row | Structure (SMILES) | Ki [nM] | selectivity for μ-calpain over m-calpain [fold]
1 | O=C(O)/C(S)=C/c1ccc(I)cc1 [PD150606] | 210 ± 10 | –
2 | O=C(O)/C(S)=C/c1c[nH]c2ccc(F)cc12 [PD151746] | 260 ± 30 | 20
